Results from ChEMBL document CHEMBL5608208, “Design, synthesis of griseofamine A derivatives and development of potent antibacterial agents against MRSA” (Eur J Med Chem, 2024).
Converted amounts (≈) assume the structure as drawn. The source made the active and inactive calls. The calls are words filed in the database; no cut-off is given here.

Legend:
Staphylococcus aureus [1] = test: Antibacterial activity against Staphylococcus aureus ATCC 29213 incubated for 18 hrs by serial two-fold dilution method; assay type: functional
Staphylococcus aureus [2] = test: Antibacterial activity against methicillin resistant Staphylococcus aureus ATCC 33592 incubated for 18 hrs by serial two-fold dilution method; assay type: functional
Staphylococcus aureus [3] = test: Antibacterial activity against methicillin resistant Staphylococcus aureus ATCC 43300 incubated for 18 hrs by serial two-fold dilution method; assay type: functional
Staphylococcus aureus [4] = test: Potency index, ratio of griseofamine A MIC to test compound MIC for antibacterial activity against methicillin resistant Staphylococcus aureus ATCC 43300; assay type: functional
[5] = test system: Staphylococcus epidermidis; test: Bactericidal activity against Staphylococcus epidermidis ATCC 12228 incubated for 18 to 24 hrs; assay type: functional; conditions: time 18-24 hrs
Staphylococcus aureus [6] = test: Bactericidal activity against methicillin resistant Staphylococcus aureus ATCC 43300 incubated for 18 to 24 hrs; assay type: functional; conditions: time 18-24 hrs
Staphylococcus aureus [7] = test: Bactericidal activity against methicillin resistant Staphylococcus aureus ATCC 33592 at 2.5 times MIC measured after 2 to 24 hrs by time-kill kinetics assay; assay type: functional; conditions: time 2-24 hrs
Enterococcus faecium = test: Antibacterial activity against Enterococcus faecium ATCC 700221 incubated for 18 hrs by serial two-fold dilution method; assay type: functional
Bacillus subtilis = test: Antibacterial activity against Bacillus subtilis CMCC 63501 incubated for 18 hrs by serial two-fold dilution method; assay type: functional
[8] = test system: Staphylococcus epidermidis; test: Drug resistance development in Staphylococcus epidermidis ATCC 12228 assessed as increase in MIC value measured after 8 passages by broth microdilution method; assay type: functional
Staphylococcus aureus [9] = test: Drug resistance development in Staphylococcus aureus ATCC 29213 assessed as increase in MIC value measured after 8 passages by broth microdilution method; assay type: functional
Staphylococcus aureus [10] = test: Drug resistance development in methicillin resistant Staphylococcus aureus […] assessed as increase in MIC value measured after 8 passages by broth microdilution method; assay type: functional
Staphylococcus aureus [11] = test: Drug resistance development in methicillin resistant Staphylococcus aureus ATCC 43300 assessed as increase in MIC value measured after 8 passages by broth microdilution method; assay type: functional
[12] = test system: Staphylococcus epidermidis; test: Drug resistance development in Staphylococcus epidermidis ATCC 12228 assessed as increase in MIC value measured after 7 passages by broth microdilution method; assay type: functional, organism-based
Staphylococcus aureus [13] = test: Drug resistance development in Staphylococcus aureus ATCC 29213 assessed as increase in MIC value measured after 7 passages by broth microdilution method; assay type: functional, organism-based
Staphylococcus aureus [14] = test: Drug resistance development in methicillin resistant Staphylococcus aureus […] assessed as increase in MIC value measured after 7 passages by broth microdilution method; assay type: functional, organism-based
Staphylococcus aureus [15] = test: Drug resistance development in methicillin resistant Staphylococcus aureus ATCC 43300 assessed as increase in MIC value measured after 7 passages by broth microdilution method; assay type: functional, organism-based
[16] = AUC(0 to infinity) in ICR mouse at 5 mg/kg, po; assay type: ADME, organism-based; conditions: in vivo
[17] = Half-life in ICR mouse at 5 mg/kg, po; assay type: ADME, organism-based; conditions: in vivo
[18] = Tmax in ICR mouse at 5 mg/kg, po; assay type: ADME, organism-based; conditions: in vivo
[19] = Cmax in ICR mouse at 5 mg/kg, po; assay type: ADME, organism-based; conditions: in vivo
[20] = Volume of distribution in ICR mouse at 5 mg/kg, po; assay type: ADME, organism-based; conditions: in vivo
[21] = Clearance in ICR mouse at 5 mg/kg, po; assay type: ADME, organism-based; conditions: in vivo
[22] = AUC(0 to t) in ICR mouse at 1 mg/kg, iv; assay type: ADME, organism-based; conditions: in vivo
[23] = AUC(0 to infinity) in ICR mouse at 1 mg/kg, iv; assay type: ADME, organism-based; conditions: in vivo
[24] = MRT(0 to t) in ICR mouse at 1 mg/kg, iv; assay type: ADME, organism-based; conditions: in vivo
[25] = MRT(0 to infinity) in ICR mouse at 1 mg/kg, iv; assay type: ADME, organism-based; conditions: in vivo
[26] = Half-life in ICR mouse at 1 mg/kg, iv; assay type: ADME, organism-based; conditions: in vivo
[27] = Tmax in ICR mouse at 1 mg/kg, iv; assay type: ADME, organism-based; conditions: in vivo
[28] = Volume of distribution in ICR mouse at 1 mg/kg, iv; assay type: ADME, organism-based; conditions: in vivo
[29] = Clearance in ICR mouse at 1 mg/kg, iv; assay type: ADME, organism-based; conditions: in vivo
Staphylococcus aureus [30] = test: Antibacterial activity against methicillin resistant Staphylococcus aureus ATCC 43300 infected in ip dosed ICR mouse systemic infection model pretreated with bacteria for 30 mins followed by compound addition and measured for 7 days; assay type: functional, organism-based; conditions: dose 1.25-5 mg/kg, time 7.0 day
Staphylococcus aureus [31] = test: Antibacterial activity against methicillin resistant Staphylococcus aureus ATCC 43300 infected in ICR mouse systemic infection model at 1.25 to 5 mg/kg, ip pretreated with bacteria for 30 mins followed by compound addition and measured for 7 days; assay type: functional; conditions: dose 1.25-5 mg/kg, time 7 day
Staphylococcus aureus [32] = test: Antibacterial activity against methicillin resistant Staphylococcus aureus ATCC 43300 infected in ICR mouse systemic infection model at 5 mg/kg, ip pretreated with bacteria for 30 mins followed by compound addition and measured for 7 days; assay type: functional; conditions: time 7 day
Staphylococcus aureus [33] = test: Antibacterial activity against methicillin resistant Staphylococcus aureus ATCC 43300 infected in ICR mouse systemic infection model assessed as reduction in bacterial burden in heart at 2.5 mg/kg, ip pretreated with bacteria for 30 mins followed by compound addition and measured for 7 days; assay type: functional, organism-based; conditions: time 7.0 day
Staphylococcus aureus [34] = test: Antibacterial activity against methicillin resistant Staphylococcus aureus ATCC 43300 infected in ICR mouse systemic infection model assessed as reduction in bacterial burden in liver at 2.5 mg/kg, ip pretreated with bacteria for 30 mins followed by compound addition and measured for 7 days; assay type: functional, organism-based; conditions: time 7.0 day
Staphylococcus aureus [35] = test: Antibacterial activity against methicillin resistant Staphylococcus aureus ATCC 43300 infected in ICR mouse systemic infection model assessed as reduction in bacterial burden in spleen at 2.5 mg/kg, ip pretreated with bacteria for 30 mins followed by compound addition and measured for 7 days; assay type: functional, organism-based; conditions: time 7.0 day
[36] = Acute toxicity in ICR mouse assessed as aberrant behavior at 2 g/kg, po measured after 7 days; assay type: organism-based; conditions: in vivo, 2000 mg/kg, 168 h, time 7 day
[37] = Acute toxicity in ICR mouse assessed as change in body weight at 2 g/kg, po measured after 7 days; assay type: organism-based; conditions: in vivo, 2000 mg/kg, 168 h, time 7 day
[38] = Acute toxicity in ICR mouse assessed as change in water intake at 2 g/kg, po measured after 7 days; assay type: organism-based; conditions: in vivo, 2000 mg/kg, 168 h, time 7 day
[39] = Acute toxicity in ICR mouse assessed as change in food intake at 2 g/kg, po measured after 7 days; assay type: organism-based; conditions: in vivo, 2000 mg/kg, 168 h, time 7 day
[40] = Acute toxicity in ICR mouse at 2 g/kg, po measured after 7 days; assay type: organism-based; conditions: in vivo, 2000 mg/kg, time 7 day
Staphylococcus aureus [41] = test: Antibacterial activity against methicillin resistant Staphylococcus aureus ATCC 33592 assessed as surface collapse at MIC incubated for 1 to 6 hrs by SEM analysis; assay type: functional, organism-based; conditions: time 1-6 hrs
Staphylococcus aureus [42] = test: Antibacterial activity against methicillin resistant Staphylococcus aureus ATCC 33592 assessed as increase in cell aggregation at MIC incubated for 1 to 6 hrs by SEM analysis; assay type: functional, organism-based; conditions: time 1-6 hrs
Cell membrane = test: Induction of bacterial cell membrane damage in methicillin resistant Staphylococcus aureus ATCC 33592 assessed as increase in fluorescence intensity at MIC incubated for 2 hrs by PI staining based microplate reader assay; assay type: cell membranes

SMILES: C/C(O)=C1\C(=O)[C@@H]2Cc3c([nH]c4ccccc34)[C@@H](c3ccc(-c4cc(F)cc(F)c4)cc3)N2C1=O
- MIC (Staphylococcus aureus [1]): 0.031 µg/mL (≈ 0.0659 µM)
- MIC (Staphylococcus aureus [2]): 0.063 µg/mL (≈ 0.134 µM)
- MIC (Staphylococcus aureus [3]): 0.063 µg/mL (≈ 0.134 µM)
- Ratio (Staphylococcus aureus [4]): 128
- MBC [5]: 0.25 µg/mL (≈ 0.531 µM)
- MBC (Staphylococcus aureus [6]): 1 µg/mL (≈ 2.13 µM)
- Activity (Staphylococcus aureus [7]): 100%
- MIC (Enterococcus faecium): 0.45 µg/mL (≈ 0.956 µM)
- MIC (Bacillus subtilis): 0.14 µg/mL (≈ 0.298 µM)
- MIC [8]: 2 µg/mL
- MIC (Staphylococcus aureus [9]): 2 µg/mL
- MIC (Staphylococcus aureus [10]): 2 µg/mL
- MIC (Staphylococcus aureus [11]): 2 µg/mL
- Activity [12]: inactive
- Activity (Staphylococcus aureus [13]): inactive
- Activity (Staphylococcus aureus [14]): inactive
- Activity (Staphylococcus aureus [15]): inactive
- AUC(0-inf) [16]: 2570 ng·h/mL
- half-life [17]: 7.91 h
- Tmax [18]: 3.33 h
- Cmax [19]: 233 ng/mL
- Vd [20]: 21.714 L/kg
- CL/F [21]: 32.5 mL/min/kg
- AUC(0-t) [22]: 4240 ng·h/mL
- AUC(0-inf) [23]: 4290 ng·h/mL
- MRT last [24]: 10.4 h
- MRT inf [25]: 11.1 h
- half-life [26]: 7.59 h
- Tmax [27]: 1.8 min
- Vd [28]: 2.55 L/kg
- clearance [29]: 3.88 mL/min/kg
- Activity (Staphylococcus aureus [30]): Dose-Dependent Effect
- Activity (Staphylococcus aureus [31]): >50%
- Activity (Staphylococcus aureus [32]): 87.5%
- Activity (Staphylococcus aureus [33]): Active
- Activity (Staphylococcus aureus [34]): Active
- Activity (Staphylococcus aureus [35]): Active
- Activity [36]: Non-Toxic
- Activity [37]: Non-Toxic
- Activity [38]: Non-Toxic
- Activity [39]: Non-Toxic
- LD50 at 168 h [40]: > 2000 mg/kg
- Activity (Staphylococcus aureus [41]): Active
- Activity (Staphylococcus aureus [42]): Active
- Activity (Cell membrane): Active
